Measured values: patent US20260116921A1, “PEPTIDE INHIBITORS OF INTERLEUKIN-23 RECEPTOR AND THEIR USE TO TREAT INFLAMMATORY DISEASES” (priority 2018, published 2026)
Where two headings read alike, the source gives them in different places. Bridge positions count the residues as written; N and C are the ends. Square brackets hold non-standard residues; d marks the D form. Trp(5-Cl) = N[C@@H](Cc1c[nH]c2ccc(Cl)cc12)C(=O)O; AEF = NCCOc1ccc(C[C@H](N)C(=O)O)cc1; αMeL = CC(C)C[C@](C)(N)C(=O)O; Pen = CC(C)(S)[C@H](N)C(=O)O

B1: SEQ ID NO: 12 (peptide)
peptide: Ac-[Pen]NTWQ[Pen][AEF][Trp(5-Cl)][αMeL]K(Ac)NN-NH2
modifications: disulfide 1-6
SMILES: CC(=O)NCCCC[C@H](NC(=O)[C@](C)(CC(C)C)NC(=O)[C@H](Cc1c[nH]c2ccc(Cl)cc12)NC(=O)[C@H](Cc1ccc(OCCN)cc1)NC(=O)[C@H]1NC(=O)[C@H](CCC(N)=O)NC(=O)[C@H](Cc2c[nH]c3ccccc23)NC(=O)[C@H]([C@@H](C)O)NC(=O)[C@H](CC(N)=O)NC(=O)[C@@H](NC(C)=O)C(C)(C)SSC1(C)C)C(=O)N[C@@H](CC(N)=O)C(=O)N[C@@H](CC(N)=O)C(N)=O
B2: SEQ ID NO: 11 (peptide)
peptide: XNTXQXXXXKNN
modifications: Ac-[Pen]-NT-[W(5-Br)]-Gln-[Pen]-[Phe[4-(2-aminoethoxy)]-[2-Nal]-[α-MeLeu]-[Lys(Ac)]-NN-NH2; Pen-Pen disulfide
B3: SEQ ID NO: 10 (peptide)
peptide: XNTXQXXXXKNN
modifications: Ac-[Pen]-NT-[W(5-OH)]-Gln-[Pen]-[Phe[4-(2-aminoethoxy)]-[2-Nal]-[α-MeLeu]-[Lys(Ac)]-NN-NH2; Pen-Pen disulfide
B4: SEQ ID NO: 9 (peptide)
peptide: XNTXQXXXXKNN
modifications: Ac-[Pen]-NT-[W(5-OMe)]-Gln-[Pen]-[Phe[4-(2-aminoethoxy)]-[2-Nal]-[α-MeLeu]-[Lys(Ac)]-NN-NH2; Pen-Pen disulfide

Legend:
[1] = 20% cynomolgus monkey fecal homogenate, 37° C., 20 μM
Protocol: (§1) Fecal homogenate (20%) was prepared by adding 4 mL of growth medium (1 liter contains 2 g peptone water powder, 2 g yeast extract, 0.1 g NaCl, 0.04 g KH2PO4, 0.01 g CaCl2·6H2O, 0.01 g MgSO4·7H2O, 2 mL Tween 80, 0.5 g bile salts, 0.5 g L-cysteine HCl, 2 g NaHCO3, and 10 μL Vitamin K, pH adjusted to 6.8, and sterilized by filtration through a 0.22 μm filter) to every gram of feces (pooled freshly collected human or cynomolgus monkey feces). The suspension was vortexed to break up large clumps, and homogenized using a bead mill homogenizer. Centrifuged the homogenate at 2800×g for 15 min. The supernatant is taken out and used for incubations. DMSO stocks (10 mM) were first prepared for the test compounds. Incubations were performed in an anaerobic chamber conditioned at 37° C. Aliquots of the DMSO solutions were dosed into 1.0 mL aliquots of 20% fecal homogenate, which are pre-warmed to 37° C. The final test compound concentration was 20 μM. At each timepoint (0, 20 min, 1, 3, 6, or 24 hours), 100 μL aliquot of each incubation mixture is taken out and added to separate tubes containing 300 μL of 50% acetonitrile/50% methanol and an internal standard to terminate the reaction. Samples were taken out of the anaerobic chamber and stored at 4° C. until the end of the experiment. After the final timepoint is sampled, the tubes were mixed and then centrifuged at 3,000 rpm for 10 minutes. Aliquots of the supernatant were removed, diluted 1:1 into distilled water containing 0.1% formic acid, and analyzed by LC/MS/MS. Percent remaining at each timepoint was calculated based on the peak area response ratio of test to compound to internal standard. Time 0 was set to 100%, and all later timepoints were calculated relative to time 0. Half-lives were calculated by fitting to a first-order exponential decay equation using Graphpad or Excel.

IL-23R [2] = target: T1, IL-23R (Homo sapiens, UniProt Q5VWK5); assay: DB cells IL23R pSTAT3 cell assay (pStat3 HTRF); type: cell-based
T1 sequence (Q5VWK5 24-629): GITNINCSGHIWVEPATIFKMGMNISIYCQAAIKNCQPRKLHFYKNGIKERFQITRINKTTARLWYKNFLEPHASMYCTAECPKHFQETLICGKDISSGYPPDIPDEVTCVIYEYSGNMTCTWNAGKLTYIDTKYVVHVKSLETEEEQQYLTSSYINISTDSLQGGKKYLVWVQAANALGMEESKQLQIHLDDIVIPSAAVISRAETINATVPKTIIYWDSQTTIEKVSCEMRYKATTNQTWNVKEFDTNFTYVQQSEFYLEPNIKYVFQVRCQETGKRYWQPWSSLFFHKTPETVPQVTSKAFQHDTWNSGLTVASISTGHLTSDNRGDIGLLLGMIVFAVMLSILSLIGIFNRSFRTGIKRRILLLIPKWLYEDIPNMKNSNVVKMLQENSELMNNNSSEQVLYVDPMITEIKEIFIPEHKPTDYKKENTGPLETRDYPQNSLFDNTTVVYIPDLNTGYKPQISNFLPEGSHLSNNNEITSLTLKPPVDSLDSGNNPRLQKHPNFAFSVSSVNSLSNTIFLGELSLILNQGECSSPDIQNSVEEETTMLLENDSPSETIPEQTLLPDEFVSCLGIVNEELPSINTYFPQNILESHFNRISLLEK
In short: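 DB cells (5×10E5/well, RPMI-1640 + 10% FBS) stimulated with 0.5 nM final IL-23 plus serially diluted test peptides for 30 min at 37 °C, 5% CO2. Phospho-STAT3 (Tyr705) in lysates measured by HTRF using a two-plate protocol.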

in vitro [3] = type: in vitro ADME; design: half-life: dose or concentration left out as unconfirmed; conditions: pH 6.8, 37° C., § matrix is 100 fold dilution of standard SIF concentration; for SIF t½: simulated intestinal fluid, pancreatin
in vitro [4] = conditions: both, SD, rat, plasma (EDTA)
in vitro [5] = conditions: cynomolgus monkey, 20% fecal homogenate (supernatant), anaerobic, pH 6.8
Protocol: as §1

in vitro [6] = conditions: human, 20% fecal homogenate (supernatant), anaerobic, pH 6.8
Protocol: as §1

NK cells = assay: NK cell based assay (IL-23/IL-18-induced IFNγ, Quantikine ELISA); conditions: human primary NK cells, IL-23 at EC50 to EC75 + IL-18 10 ng/mL, IFNγ after 20 to 24 hours
In short: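 Human NK cells were negatively selected from healthy-donor peripheral blood and expanded for 7 days in FBS-supplemented RPMI 1640 with IL-2 (25 ng/mL). IFNγ in the supernatant was quantified by ELISA after 20 to 24 hours.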

[7] = Stability in simulated gastric fluid (SGF); type: in vitro ADME; conditions: pig (pepsin), simulated gastric fluid (SGF) with porcine pepsin, pH=2, 37° C., 20 μM peptide, read-out: SGF t½ (converted)
Protocol: SGF was prepared by adding 20 mg NaCl, 32 mg porcine pepsin (MP Biochemicals, catalog 02102599), and 70 μl HCl to 10 ml water (final pH=2). Aliquots of SGF (0.5 ml each) were pre-warmed at 37° C. To start the reaction, 1 μl of peptide stock solution (10 mM in DMSO) was added to 0.5 ml SGF and thoroughly mixed such that the final peptide concentration was 20 μM. The reactions were incubated at 37° C. with gentle shaking. At each time point (0, 15, 30, 60 min) 50 μl aliquots were removed and added to 200 ul acetonitrile containing 0.1% formic acid to quench the reaction. Samples are stored at 4° C. until the end of the experiment and centrifuged at 10,000 rpm for 5 minutes. Aliquots of the supernatant were removed, diluted 1:1 into distilled water containing internal standard, and analyzed by LCMS/MS. Percent remaining at each timepoint was calculated based on the peak area response ratio of test to compound to internal standard. Time 0 was set to 100%, and all later timepoints were calculated relative to time 0. Half-lives were calculated by fitting to a first-order exponential decay equation using GraphPad.

IL-23R [8] = target: T2, IL-23R (human, UniProt Q5VWK5 24-629); assay: cell-based or functional assay
T2 sequence (looked up): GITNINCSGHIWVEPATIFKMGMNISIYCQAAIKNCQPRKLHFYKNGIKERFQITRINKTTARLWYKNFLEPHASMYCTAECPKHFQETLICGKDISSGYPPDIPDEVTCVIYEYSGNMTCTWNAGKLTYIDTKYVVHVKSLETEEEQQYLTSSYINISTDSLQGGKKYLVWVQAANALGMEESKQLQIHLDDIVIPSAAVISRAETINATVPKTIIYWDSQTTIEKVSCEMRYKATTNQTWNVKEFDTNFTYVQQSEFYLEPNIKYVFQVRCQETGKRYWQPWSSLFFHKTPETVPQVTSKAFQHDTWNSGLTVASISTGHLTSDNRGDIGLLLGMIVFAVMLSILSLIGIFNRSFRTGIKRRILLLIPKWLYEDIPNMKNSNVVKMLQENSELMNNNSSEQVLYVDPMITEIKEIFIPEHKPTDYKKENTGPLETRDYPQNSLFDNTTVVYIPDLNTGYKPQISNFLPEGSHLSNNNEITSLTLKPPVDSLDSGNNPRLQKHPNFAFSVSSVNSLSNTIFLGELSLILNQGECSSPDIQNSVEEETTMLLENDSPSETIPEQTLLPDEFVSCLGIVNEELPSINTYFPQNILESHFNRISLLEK

[9] = Table E3, DB cells, IL-23 0.5 nM, 30 minutes at 37° C., read-out: pStat3 HTRF (IC50)

| Molecule | SIF t½ (in vitro [3]) [h] | half-life at 20 μM (in vitro [5]) [min] | half-life at 20 μM (in vitro [6]) [min] | IC50 (IL-23R [2]) [nM] | half-life at 20 μM [7] [min] | also measured |
| --- | --- | --- | --- | --- | --- | --- |
| CC(=O)NCCCC[C@H](NC(=O)[C@](C)(CCCCN)NC(=O)[C@H](Cc1ccc2ccccc2c1)NC(=O)[C@H](Cc1ccc(OCCN)cc1)NC(=O)[C@H]1NC(=O)[C@H](CCC(N)=O)NC(=O)[C@H](Cc2c[nH]c3c(C)cccc23)NC(=O)[C@H]([C@@H](C)O)NC(=O)[C@H](CC(N)=O)NC(=O)[C@@H](NC(C)=O)C(C)(C)SSC1(C)C)C(=O)N[C@@H](CC(N)=O)C(=O)NCCC(N)=O [compound 267] | – | – | – | – | – | t½: Monkey Feces anaerobic [1]: 4 h; IC50 (IL-23R [2]; [9]): < 1 nM |
| CC(=O)NCCCC[C@H](NC(=O)[C@](C)(CC(C)C)NC(=O)[C@H](Cc1ccc2ccccc2c1)NC(=O)[C@H](Cc1ccc(OCCN)cc1)NC(=O)[C@H]1NC(=O)[C@H](CCC(N)=O)NC(=O)[C@H](Cc2c[nH]c3c(C)cccc23)NC(=O)[C@H]([C@@H](C)O)NC(=O)[C@H](CC(N)=O)NC(=O)[C@@H](NC(C)=O)C(C)(C)SSC1(C)C)C(=O)N[C@@H](CC(N)=O)C(=O)N[C@@H](CC(N)=O)C(N)=O [compound 6] | 24 | 240 | 1020 | < 1 | 720 | half-life at 20 μM (in vitro [4]): < 60 min; IC50 (NK cells): < 10 nM |
| CC(=O)NCCCC[C@H](NC(=O)[C@](C)(CC(C)C)NC(=O)[C@H](Cc1ccc2ccccc2c1)NC(=O)[C@H](Cc1ccc(OCCN)cc1)NC(=O)[C@H]1NC(=O)[C@H](CCC(N)=O)NC(=O)[C@H](Cc2c[nH]c3c(C)cccc23)NC(=O)[C@H]([C@@H](C)O)NC(=O)[C@H](CC(N)=O)NC(=O)[C@@H](NC(C)=O)C(C)(C)SSC1(C)C)C(=O)N[C@@H](CC(N)=O)C(=O)NCCC(N)=O [compound 201] | – | 1140 | > 1440 | – | 840 | half-life at 20 μM (in vitro [4]): < 18 min; IC50 (NK cells): < 10 nM; IC50 (IL-23R [2]; [9]): < 1 nM |
| CC(=O)NCCCC[C@H](NC(=O)C1(NC(=O)[C@H](Cc2ccc3ccccc3c2)NC(=O)[C@H](Cc2ccc(OCCN)cc2)NC(=O)[C@@H]2CSCC[C@H](NC(=O)[C@@H](CCCNC(=N)N)NC(C)=O)C(=O)N[C@@H](CCC(N)=O)C(=O)N[C@@H]([C@@H](C)O)C(=O)N[C@@H](Cc3c[nH]c4c(C)cccc34)C(=O)N[C@@H](CCC(N)=O)C(=O)N2)CCOCC1)C(=O)N[C@@H](CC(N)=O)C(=O)N[C@@H](CC(N)=O)C(N)=O [compound 29] | – | – | – | < 1 | 60 | half-life (in vitro [3]; simulated intestinal fluid (SIF) with pancreatin, read-out: SIF t½ (converted)): 1260 min; half-life at 20 μM (in vitro [4]): 180 min |
| CC(=O)NCCCC[C@H](NC(=O)[C@](C)(CC(C)C)NC(=O)[C@H](Cc1ccc2ccccc2c1)NC(=O)[C@H](Cc1ccc(OCCN)cc1)NC(=O)[C@H]1NC(=O)[C@H](CCC(N)=O)NC(=O)[C@H](Cc2c[nH]c3cc(C)ccc23)NC(=O)[C@H]([C@@H](C)O)NC(=O)[C@H](CC(N)=O)NC(=O)[C@@H](NC(C)=O)C(C)(C)SSC1(C)C)C(=O)N[C@@H](CC(N)=O)C(=O)N[C@@H](CC(N)=O)C(N)=O [compound 5] | 24 | 120 | 360 | 1 to 10 | 720 | – |
| CC(=O)N[C@H]1CCSC[C@@H](C(=O)N[C@@H](Cc2ccc(OCCN)cc2)C(=O)N[C@@H](Cc2ccc3ccccc3c2)C(=O)NC2(C(=O)N[C@@H](CCC(=O)O)C(=O)N[C@@H](CC(N)=O)C(=O)N[C@@H](CC(N)=O)C(N)=O)CCOCC2)NC(=O)[C@H](CCC(N)=O)NC(=O)[C@H](Cc2c[nH]c3c(C)cccc23)NC(=O)[C@H]([C@@H](C)O)NC(=O)[C@H](CCC(N)=O)NC1=O [compound 28] | 24 | 300 | 60 | < 1 | 180 | – |
| CC(=O)NCCCC[C@H](NC(=O)[C@](C)(CC(C)C)NC(=O)[C@H](Cc1ccc2ccccc2c1)NC(=O)[C@H](Cc1ccc(OCCN)cc1)NC(=O)[C@H]1NC(=O)[C@H](CCC(N)=O)NC(=O)[C@H](Cc2c[nH]c3c(C)cccc23)NC(=O)[C@H]([C@@H](C)O)NC(=O)[C@H](CC(N)=O)NC(=O)[C@@H](NC(C)=O)C(C)(C)SSC1(C)C)C(=O)N[C@@H](CO)C(=O)NCCC(N)=O [compound 221] | – | > 1440 | > 1440 | – | 540 | half-life at 20 μM (in vitro [4]): 120 min; IC50 (NK cells): < 10 nM; IC50 (IL-23R [2]; [9]): 1 to 10 nM |
| CC(=O)NCCCC[C@H](NC(=O)C1(NC(=O)[C@H](Cc2ccc3ccccc3c2)NC(=O)[C@H](Cc2ccc(OCCN)cc2)NC(=O)[C@H]2NC(=O)[C@H](CCC(N)=O)NC(=O)[C@H](Cc3c[nH]c4c(C)cccc34)NC(=O)[C@H]([C@@H](C)O)NC(=O)[C@H](CC(N)=O)NC(=O)[C@@H](NC(C)=O)C(C)(C)SSC2(C)C)CCNCC1)C(=O)N[C@@H](CC(N)=O)C(=O)NCCC(N)=O [compound 275] | – | – | – | – | – | t½: Monkey Feces anaerobic [1]: 8 h |
| CC(=O)NCCCC[C@H](NC(=O)[C@](C)(CC(C)C)NC(=O)[C@H](Cc1ccc2ccccc2c1)NC(=O)[C@H](Cc1ccc(OCCN)cc1)NC(=O)[C@H]1NC(=O)[C@H](CCC(N)=O)NC(=O)[C@H](Cc2c[nH]c3c(F)cccc23)NC(=O)[C@H]([C@@H](C)O)NC(=O)[C@H](CC(N)=O)NC(=O)[C@@H](NC(C)=O)C(C)(C)SSC1(C)C)C(=O)N[C@@H](CC(N)=O)C(=O)N[C@@H](CC(N)=O)C(N)=O [compound 8] | 24 | – | – | 10 to 100 | 900 | – |
| COc1cccc2[nH]cc(C[C@@H]3NC(=O)[C@H]([C@@H](C)O)NC(=O)[C@H](CC(N)=O)NC(=O)[C@@H](NC(C)=O)C(C)(C)SSC(C)(C)[C@@H](C(=O)N[C@@H](Cc4ccc(OCCN)cc4)C(=O)N[C@@H](Cc4ccc5ccccc5c4)C(=O)N[C@@](C)(CC(C)C)C(=O)N[C@@H](CCCCNC(C)=O)C(=O)N[C@@H](CC(N)=O)C(=O)N[C@@H](CC(N)=O)C(N)=O)NC(=O)[C@H](CCC(N)=O)NC3=O)c12 [compound 4] | 24 | 120 | 360 | 1 to 10 | 540 | – |
| B1 | – | – | – | – | – | pStat3 HTRF (nM) IC50 (IL-23R [8]): > 100 nM |
| B2 | – | – | – | – | – | pStat3 HTRF (nM) IC50 (IL-23R [8]): > 100 nM |
| B3 | – | – | – | – | – | pStat3 HTRF (nM) IC50 (IL-23R [8]): > 100 nM |
| B4 | – | – | – | – | – | pStat3 HTRF (nM) IC50 (IL-23R [8]): > 100 nM |
